Laboratory results taken from patent US11547687B2, “Neprilysin inhibitors” (THERAVANCE BIOPHARMA R&D IP, LLC, priority 2011, dated 2023).

Target: human NEP (Homo sapiens (Human), UniProt P08473)
Assay: In vitro enzyme inhibition assay at human NEP (Assay 1)
Assay type: biochemical
Conditions: pKi values at human NEP, reported as ranges

CC(C)COC(=O)C(=O)N[C@H](Cc1ccc(-c2cc(Cl)ccc2Cl)cc1)C[C@@H](O)C(=O)O [Example 3D, (2R,4R)-5-(2′,5′-Dichlorobiphenyl-4-yl)-2-hydroxy-4-(isobutoxyoxalylamino)-pentanoic Acid] showed a pKi of no less than 9.
